Patent US11505575B2, “Cyclic polypeptides for PCSK9 inhibition” (Merck Sharp & Dohme LLC, priority 2018, dated 2022)
*1 amine or outer side, *2 acyl side, *3 side chain or, on linkers, in order; H or OH if unused. Where a SMILES comes first, the peptide text is derived from it. Bridges are numbered along the chain shown (N, C = ends). [ ]: non-standard residue; d: D form. The star is where a group is joined. Pro(3R,4S-CMe2) = CC1(C)[C@@H]2[C@@H](C(=O)O)NC[C@@H]21; Phe(4-guanidino) = N=C(N)Nc1ccc(C[C@H](N)C(=O)O)cc1; Pro(trans-4-Ph) = O=C(O)[C@@H]1C[C@@H](c2ccccc2)CN1; Trp(7-aza) = N[C@@H](Cc1c[nH]c2ncccc12)C(=O)O; Phe(4-CH2NH2) = NCc1ccc(C[C@H](N)C(=O)O)cc1; Pro(4S-NH2) = N[C@@H]1CN[C@H](C(=O)O)C1; Pro(4,4-F2) = O=C(O)[C@@H]1CC(F)(F)CN1; mXylylene = c1cc(C[*:1])cc(C[*:2])c1; Val(3-OH) = CC(C)(O)[C@H](N)C(=O)O; Myristoyl = CCCCCCCCCCCCCC(=O)*; Aad = N[C@@H](CCCC(=O)O)C(=O)O; Chg = N[C@H](C(=O)O)C1CCCCC1; Tle = CC(C)(C)[C@H](N)C(=O)O; NMeA = CN[C@@H](C)C(=O)O; Nva = CCC[C@H](N)C(=O)O; Mpa = O=C(O)CCS; Sar = CNCC(=O)O

Molecular target: human PCSK9 / human LDLR EGFa domain interaction (Homo sapiens, UniProt Q8NBP7)
Sequence (Q8NBP7 153-692): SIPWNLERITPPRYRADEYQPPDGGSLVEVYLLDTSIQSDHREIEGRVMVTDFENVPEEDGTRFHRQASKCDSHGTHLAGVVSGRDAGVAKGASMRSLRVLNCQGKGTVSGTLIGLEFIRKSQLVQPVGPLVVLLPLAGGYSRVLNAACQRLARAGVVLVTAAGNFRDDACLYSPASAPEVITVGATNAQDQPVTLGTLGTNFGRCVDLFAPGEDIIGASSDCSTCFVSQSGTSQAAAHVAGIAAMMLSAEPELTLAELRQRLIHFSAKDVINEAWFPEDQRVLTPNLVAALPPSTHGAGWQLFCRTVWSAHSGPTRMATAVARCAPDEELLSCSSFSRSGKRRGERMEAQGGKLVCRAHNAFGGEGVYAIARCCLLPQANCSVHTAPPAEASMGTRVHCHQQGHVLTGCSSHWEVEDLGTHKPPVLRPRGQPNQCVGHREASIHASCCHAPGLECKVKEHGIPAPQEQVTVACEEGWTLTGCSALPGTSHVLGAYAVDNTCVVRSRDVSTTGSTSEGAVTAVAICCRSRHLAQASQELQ
Sequence (Q8NBP7 31-152 partner limits assumed): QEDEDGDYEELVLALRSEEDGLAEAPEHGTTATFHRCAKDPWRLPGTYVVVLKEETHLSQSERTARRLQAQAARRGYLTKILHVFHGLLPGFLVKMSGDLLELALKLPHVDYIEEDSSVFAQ
Experiment: TR-FRET assay of inhibition of the PCSK9-LDLR protein-protein interaction
Format: binding
Conditions: 20 nM biotinylated human PCSK9 + 20 nM his-tagged human LDLR EGFa domain, 2 hours room temperature
Experimental: A time-resolved fluorescence resonance energy (TR-FRET) assay was used to measure inhibition of the PCSK9-LDLR protein-protein interaction. Briefly, 20 nM avitag-biotinylated human PCSK9 was incubated with 20 nM his-tagged human LDLR EGFa domain in the presence of 5 nM LANCE Ulight Streptavidin (Perkin Elmer) and 5 nM europium-Anti-6×His (Perkin Elmer) for 2 hours covered at room temperature in buffer containing 50 mM HEPES, 150 mM NaCl, 5 mM CaCl2, 0.01% BSA and 0.01% Surfactant P20. Compounds were tested in dose-response and concentrations giving half-maximal inhibition calculated using a 4-parameter fit equation.

Row | IC50 | SMILES
1 | 1000 to 12100 nM | CCC[C@H](NC(C)=O)C(=O)N[C@H]1CSCc2cccc(c2)CSC[C@@H](C(N)=O)NC(=O)[C@H]([C@@H](C)O)NC(=O)[C@H](C2CCCCC2)NC(=O)[C@H](Cc2c[nH]c3ncccc23)NC(=O)[C@H](Cc2cnc[nH]2)NC(=O)[C@H](CCC(=O)O)NC(=O)[C@H](Cc2c[nH]c3ncccc23)NC(=O)[C@H]([C@@H](C)O)NC(=O)[C@H]2CCCN2C(=O)[C@H](Cc2ccc(O)cc2)NC(=O)[C@H](C(C)(C)C)NC1=O [Compound 001] (Ac-[Nva]C[Tle]Y[dP]T[Trp(7-aza)]EH[Trp(7-aza)][Chg]TC-NH2; linker 2-13 via mXylylene)
2 | 1 to 100 nM | CCCCCCCCCCCCCC(=O)NCCCC[C@H](NC(C)=O)C(=O)N[C@@H](CCC)C(=O)N[C@H]1CSCc2cccc(c2)CSC[C@@H](C(N)=O)NC(=O)[C@H]([C@@H](C)O)NC(=O)[C@H](C2CCCCC2)NC(=O)[C@H](Cc2c[nH]c3ncccc23)NC(=O)[C@H](Cc2c[nH]cn2)NC(=O)[C@H](CCC(=O)O)NC(=O)[C@H](Cc2c[nH]c3ncccc23)NC(=O)[C@H]([C@@H](C)O)NC(=O)[C@@H]2CCCN2C(=O)[C@H](Cc2ccc(O)cc2)NC(=O)[C@H](C(C)(C)C)NC1=O [Compound 003] (Ac-K(Myristoyl)[Nva]C[Tle]YPT[Trp(7-aza)]EH[Trp(7-aza)][Chg]TC-NH2; linker 3-14 via mXylylene)
3 | 1000 to 12100 nM | CCC[C@@H]1NC(=O)[C@H](Cc2c[nH]c3ncccc23)NC(=O)[C@H]([C@@H](C)O)NC(=O)[C@@H]2CC(F)(F)CN2C(=O)[C@H](Cc2ccc(O)cc2)NC(=O)[C@H](C(C)(C)C)NC(=O)CCSCc2cccc(c2)CSC[C@@H](C(N)=O)NC(=O)[C@H]([C@@H](C)O)NC(=O)[C@H](CCC)NC(=O)[C@H](Cc2ccc(O)cc2)NC(=O)[C@H](CCC(=O)O)NC1=O [Compound 004] ([Mpa][Tle]Y[Pro(4,4-F2)]T[Trp(7-aza)][Nva]EY[Nva]TC-NH2; linker 1-12 via mXylylene)
4 | 1000 to 12100 nM | CCC[C@@H]1NC(=O)[C@H](Cc2c[nH]c3ncccc23)NC(=O)[C@H]([C@@H](C)O)NC(=O)[C@@H]2C[C@@H](c3ccccc3)CN2C(=O)[C@H](Cc2ccc(O)cc2)NC(=O)[C@H](C(C)(C)C)NC(=O)CCSCc2cccc(c2)CSC[C@@H](C(N)=O)NC(=O)[C@H]([C@@H](C)O)NC(=O)[C@H](CCC)NC(=O)[C@H](Cc2ccc(O)cc2)NC(=O)[C@H](CCC(=O)O)NC1=O [Compound 005] ([Mpa][Tle]Y[Pro(trans-4-Ph)]T[Trp(7-aza)][Nva]EY[Nva]TC-NH2; linker 1-12 via mXylylene)
5 | 1000 to 12100 nM | CCC[C@H](NC(C)=O)C(=O)N[C@H]1CSCc2cccc(c2)CSC[C@@H](C(N)=O)NC(=O)[C@H]([C@@H](C)O)NC(=O)[C@H](C2CCCCC2)NC(=O)[C@H](Cc2c[nH]c3ncccc23)NC(=O)[C@H](Cc2cnc[nH]2)NC(=O)[C@H](CCC(=O)O)NC(=O)[C@H](Cc2c[nH]c3ncccc23)NC(=O)[C@H]([C@@H](C)O)NC(=O)[C@H](C)N(C)C(=O)[C@H](Cc2ccc(O)cc2)NC(=O)[C@H](C(C)(C)C)NC1=O [Compound 006] (Ac-[Nva]C[Tle]Y[NMeA]T[Trp(7-aza)]EH[Trp(7-aza)][Chg]TC-NH2; linker 2-13 via mXylylene)
6 | 1000 to 12100 nM | CCC[C@H](NC(C)=O)C(=O)N[C@H]1CSCc2cccc(c2)CSC[C@@H](C(N)=O)NC(=O)[C@H]([C@@H](C)O)NC(=O)[C@H](C2CCCCC2)NC(=O)[C@H](Cc2c[nH]c3ncccc23)NC(=O)[C@H](Cc2c[nH]cn2)NC(=O)[C@H](CCC(=O)O)NC(=O)[C@H](Cc2c[nH]c3ncccc23)NC(=O)[C@H]([C@@H](C)O)NC(=O)CN(C)C(=O)[C@H](Cc2ccc(O)cc2)NC(=O)[C@H](C(C)(C)C)NC1=O [Compound 007] (Ac-[Nva]C[Tle]Y[Sar]T[Trp(7-aza)]EH[Trp(7-aza)][Chg]TC-NH2; linker 2-13 via mXylylene)
7 | 100 to 1000 nM | CCC[C@@H]1NC(=O)[C@H](Cc2c[nH]c3ncccc23)NC(=O)[C@H]([C@@H](C)O)NC(=O)[C@@H]2[C@@H]3[C@H](CN2C(=O)[C@H](Cc2ccc(O)cc2)NC(=O)[C@H](C(C)(C)C)NC(=O)CCSCc2cccc(c2)CSC[C@@H](C(N)=O)NC(=O)[C@H]([C@@H](C)O)NC(=O)[C@H](CCC)NC(=O)[C@H](Cc2ccc(O)cc2)NC(=O)[C@H](CCC(=O)O)NC1=O)C3(C)C [Compound 008] ([Mpa][Tle]Y[Pro(3R,4S-CMe2)]T[Trp(7-aza)][Nva]EY[Nva]TC-NH2; linker 1-12 via mXylylene)
8 | 100 to 1000 nM | CCC[C@@H]1NC(=O)[C@H](Cc2c[nH]c3ncccc23)NC(=O)[C@H]([C@@H](C)O)NC(=O)[C@@H]2C[C@H](N)CN2C(=O)[C@H](Cc2ccc(O)cc2)NC(=O)[C@H](C(C)(C)C)NC(=O)CCSCc2cccc(c2)CSC[C@@H](C(N)=O)NC(=O)[C@H]([C@@H](C)O)NC(=O)[C@H](C2CCCCC2)NC(=O)[C@H](Cc2ccc(O)cc2)NC(=O)[C@H](CCCC(=O)O)NC1=O [Compound 010] ([Mpa][Tle]Y[Pro(4S-NH2)]T[Trp(7-aza)][Nva][Aad]Y[Chg]TC-NH2; linker 1-12 via mXylylene)
9 | 100 to 1000 nM | CCC[C@@H]1NC(=O)[C@H](Cc2c[nH]c3ncccc23)NC(=O)[C@H]([C@@H](C)O)NC(=O)[C@H](Cc2cnc[nH]2)NC(=O)[C@H](Cc2ccc(O)cc2)NC(=O)[C@H](C(C)(C)C)NC(=O)[C@@H](NC(C)=O)CCC(=O)NCc2ccc(cc2)C[C@@H](C(N)=O)NC(=O)[C@H]([C@@H](C)O)NC(=O)[C@H](CCC)NC(=O)[C@H](Cc2ccc(O)cc2)NC(=O)[C@H](CCC(=O)O)NC1=O [Compound 013] (Ac-E[Tle]YHT[Trp(7-aza)][Nva]EY[Nva]T[Phe(4-CH2NH2)]-NH2; lactam 1-12)
10 | 100 to 1000 nM | CCC[C@@H]1NC(=O)[C@H](Cc2c[nH]c3ncccc23)NC(=O)[C@H]([C@@H](C)O)NC(=O)[C@H](Cc2cnc[nH]2)NC(=O)[C@H](Cc2ccc(O)cc2)NC(=O)[C@H](C(C)(C)C)NC(=O)CCSCc2cccc(c2)CSC[C@H](C(N)=O)NC(=O)[C@H]([C@@H](C)O)NC(=O)[C@H](C2CCCCC2)NC(=O)[C@H](Cc2ccc(O)cc2)NC(=O)[C@H](CCC(=O)O)NC1=O [Compound 043] ([Mpa][Tle]YHT[Trp(7-aza)][Nva]EY[Chg]T[dC]-NH2; linker 1-12 via mXylylene)
11 | 100 to 1000 nM | CCC[C@@H]1NC(=O)[C@H](Cc2c[nH]c3ncccc23)NC(=O)[C@H]([C@@H](C)O)NC(=O)[C@H](Cc2cnc[nH]2)NC(=O)[C@H](Cc2ccc(O)cc2)NC(=O)[C@H](C(C)(C)C)NC(=O)CCSCc2cccc(c2)CSC[C@H](C(N)=O)NC(=O)[C@H](C(C)(C)O)NC(=O)[C@H](CCC)NC(=O)[C@H](Cc2ccc(O)cc2)NC(=O)[C@H](CCC(=O)O)NC1=O [Compound 044] ([Mpa][Tle]YHT[Trp(7-aza)][Nva]EY[Nva][Val(3-OH)][dC]-NH2; linker 1-12 via mXylylene)
12 | 100 to 1000 nM | CCC[C@@H]1NC(=O)[C@H](Cc2c[nH]c3ncccc23)NC(=O)[C@H]([C@@H](C)O)NC(=O)[C@H](CCCCN)NC(=O)[C@H](Cc2ccc(O)cc2)NC(=O)[C@H](C(C)(C)C)NC(=O)CCSCc2cccc(c2)CSC[C@@H](C(N)=O)NC(=O)[C@H]([C@@H](C)O)NC(=O)[C@H](C2CCCCC2)NC(=O)[C@H](Cc2ccc(O)cc2)NC(=O)[C@H](CCC(=O)O)NC1=O [Compound 046] ([Mpa][Tle]YKT[Trp(7-aza)][Nva]EY[Chg]TC-NH2; linker 1-12 via mXylylene)
13 | 100 to 1000 nM | CCC[C@@H]1NC(=O)[C@H](Cc2c[nH]c3ncccc23)NC(=O)[C@H]([C@@H](C)O)NC(=O)[C@H](CCC(=O)O)NC(=O)[C@H](Cc2ccc(O)cc2)NC(=O)[C@H](C(C)(C)C)NC(=O)CCSCc2cccc(c2)CSC[C@@H](C(N)=O)NC(=O)[C@H]([C@@H](C)O)NC(=O)[C@H](C2CCCCC2)NC(=O)[C@H](Cc2ccc(O)cc2)NC(=O)[C@H](CCCCN)NC1=O [Compound 047] ([Mpa][Tle]YET[Trp(7-aza)][Nva]KY[Chg]TC-NH2; linker 1-12 via mXylylene)
14 | 1000 to 12100 nM | CCC[C@H](NC(=O)[C@H](Cc1c[nH]c2ncccc12)NC(=O)[C@H](NC(C)=O)[C@@H](C)O)C(=O)NC1CCC(=O)NCCCCCNC(=O)[C@H](Cc2ccc(O)cc2)NC(=O)[C@H](C(C)(C)C)NC(=O)CCSCc2cccc(c2)CSC[C@H](C(N)=O)NC(=O)[C@H]([C@@H](C)O)NC(=O)[C@H](C2CCCCC2)NC(=O)[C@H](Cc2ccc(O)cc2)NC1=O (stereo partly shown) [Compound 049]
15 | 100 to 1000 nM | CCC[C@@H]1NC(=O)[C@H](Cc2c[nH]c3ncccc23)NC(=O)[C@H]([C@@H](C)O)NC(=O)[C@H](Cc2cnc[nH]2)NC(=O)[C@H](Cc2ccc(O)cc2)NC(=O)[C@H](C(C)(C)C)NC(=O)[C@@H](NC(=O)[C@H](CCCNC(=N)N)NC(C)=O)CSCc2cccc(c2)CSC[C@@H](C(N)=O)NC(=O)[C@H]([C@@H](C)O)NC(=O)[C@H](CCC)NC(=O)[C@H](Cc2ccc(O)cc2)NC(=O)[C@H](CCC(=O)O)NC1=O [Compound 050] (Ac-RC[Tle]YHT[Trp(7-aza)][Nva]EY[Nva]TC-NH2; linker 2-13 via mXylylene)
16 | 1000 to 12100 nM | CCC[C@@H]1NC(=O)[C@H](Cc2ccc(NC(=N)N)cc2)NC(=O)[C@H]([C@@H](C)O)NC(=O)[C@H](Cc2cnc[nH]2)NC(=O)[C@H](Cc2ccc(O)cc2)NC(=O)[C@H](C(C)(C)C)NC(=O)CCSCc2cccc(c2)CSC[C@@H](C(N)=O)NC(=O)[C@H]([C@@H](C)O)NC(=O)[C@H](CCC)NC(=O)[C@H](Cc2ccc(O)cc2)NC(=O)[C@H](CCC(=O)O)NC1=O [Compound 055] ([Mpa][Tle]YHT[Phe(4-guanidino)][Nva]EY[Nva]TC-NH2; linker 1-12 via mXylylene)
